Entries after “also recorded” stand apart in the source; their conditions may differ.
Columns and labels:
Assay type in all cases: in vivo
[1] = Body weight, tMCAO rat-stroke study; conditions: 30 mg/kg 3 times a week or 15 mg/kg daily s.c., 28 days
Excerpt: In total 46 male SD rats having an average body weight of 342 g at study initiation (Day 0) were obtained from Harlan Laboratories, Israel. The minimal and maximal weight recorded in each group was within a range of ±20% of the group mean weight. Animals were handled according to guidelines of the National Institute of Health (NIH) and the Association for Assessment and Accreditation of Laboratory Animal Care (AAALAC). Animals were housed in polyethylene cages (5/cage) measuring 35×30×15 cm, with stainless steel top grill facilitating pelleted food and drinking water in plastic bottle; bedding: steam sterilized clean paddy husk (Harlan, Sani-chip cat #:2018SC+F) was used and bedding material was changed along with the cage at least twice a week. Animals were fed ad libitum a commercial rodent diet (Teklad Certified Global 18% Protein Diet cat #: 106S8216). Animals had free access to autoclaved and acidified drinking water (pH between 2.5 and 3.5) obtained from the municipality supply. Animals were housed under standard laboratory conditions, air-conditioned and filtered (HEPA F6/6) with adequate fresh air supply (Minimum 15 air changes/hour). Animals were kept in a climate-controlled environment. Temperatures range was 20-24° C. and RH range was 30-70% with 12 hours light and 12 hours dark cycle. […]

[2] = tested on: rat model of myocardial infarction; assay: SMA vascular density count, rat myocardial infarction model; conditions: group 2M, 15 mg/kg 3 times/week for 3 weeks; 35 days after MI induction; infarct region
Method: On the day of surgery the animals were anesthetized with a combination of 90 mg/kg ketamine and 10 mg/kg xylazine. In order to induce MI, under anesthesia and analgesia, the rat chest was opened by left thoracotomy, the pericardium was removed and the proximal left coronary artery was permanently occluyded with an intramural stitch (Circulation 117, 1388-1396 (2008)). Two hours post surgery, each animal in all treated groups were injected s.c. with dextran sulfate or saline vehicle according to Table 11.
For the purpose of MI size identification, Masson's Trichrome Staining was used. Nine hearts of a treated (2M) group and eight of the untreated (1M) group were sectioned transversely into five sections that were imbedded in paraffin. Five paraffin sections at 5 μm were performed on a Lika microtome. All sections were stained according to standard Masson's trichrome protocol. The sections were visualized in a computer-imaging system and infarct size was marked and calculated using the ImageJ program. Infarct size was expressed as percentage of infarct area (unstained) versus the total left ventricle area. For each animal, five serial sections including one containing the ligature were analyzed and the mean value of all sections for each heart was calculated. Immunohistobchemistry marker (Smooth Muscle Actin—SMA) was used for evaluating the vascular density count. […]

[3] = tested on: Critical Hind-Limb Ischemia Mouse Model; assay: Blood flow by non-contact laser Doppler, mouse hind-limb ischemia; conditions: for folds increase in the mean blood flow due to dextran sulfate treatment: vs vehicle control 1M; for Mean change in blood flow day 35 vs. day 1: operated limb, vehicle 19.5
Method: Blood flows in legs from both sides were measured with a non-contact laser Doppler before surgery on day −1 and on days: 1, 7, 14, 21, 28 and 35 post operation. Blood flow measurements was expressed as the ratio of the flow in the ischemic limb to that in the normal limb.

Dextran sulfate
Body weight, differences among treatment groups [1]: no statistically significant differences
SMA capillary density compared to vehicle control [2]: higher SMA capillary density; also recorded: trend of increase in capillaries density
Blood perfusion compared to the vehicle treated control ([3]; 30 mg/kg s.c. three times a week or once a week): significantly restored blood perfusion
folds increase in the mean blood flow due to dextran sulfate treatment ([3]; group 2M, 10 mg/kg 3 times/week): 2.2 folds
Mean change in blood flow day 35 vs. day 1 ([3]; group 2M, 10 mg/kg s.c. 3 times/week): 46.7 units
folds increase in the mean blood flow due to dextran sulfate treatment ([3]; group 3M, 30 mg/kg 3 times/week): 3.0 folds
Mean change in blood flow day 35 vs. day 1 ([3]; group 3M, 30 mg/kg s.c. 3 times/week): 59.3 units
folds increase in the mean blood flow due to dextran sulfate treatment ([3]; group 4M, 30 mg/kg 1 time/week): 2.8 folds
Mean change in blood flow day 35 vs. day 1 ([3]; group 4M, 30 mg/kg s.c. 1 time/week): 51.1 units
